We go through 13 compounds from US7271274B2, “Phenolic antioxidants for the treatment of disorders including arthritis, asthma and coronary artery disease” (AhteroGenics, Inc., priority 2004, dated 2007).

Data set [1] concerns VCAM-1. Briefly: In Vitro VCAM-1 Assay - Method 1 (TNF-α stimulated endothelial cells, surface VCAM-1 ELISA). Type of data set: cell-based. Particulars: Homo sapiens, Endothelial cell; HAEC or HPAEC, TNF-α 1 ng/ml with compound approximately 16 hours. The protocol: Cell Culture and compound dosing: Cultured primary human aortic (HAEC) or pulmonary (HPAEC) endothelial cells were obtained from Clonetics, Inc., and were used below passage 9. Cells were seeded in 96 well plates such that they would reach 90–95% confluency by the following day. On the following day the cells were stimulated with TNF-α (1 ng/ml) in the presence or absence of compounds dissolved in DMSO such that the final concentration of DMSO is 0.25% or less. To establish a dose curve for each compound, four concentrations in 2- to 5-fold increments were used. Cells were exposed to TNF-α and compounds for approximately 16 hours. The next day the cells were examined under microscope to score for visual signs of toxicity or cell stress.
Following 16 hr exposure to TNF-α and compound the media was discarded and the cells were washed once with Hanks Balanced Salt Solution (HBSS)/Phosphate buffered saline (PBS) (1:1). Primary antibodies against VCAM-1 (0.25 μg/ml in HBSS/PBS+5% FBS) were added and incubated for 30–60 minutes at 37° C. Cells were washed with HBSS/PBS three times, and secondary antibody Horse Radish Peroxidase (HRP)-conjugated goat anti-mouse IgG (1:500 in HBSS/PBS+5% FBS) were added and incubated for 30 minutes at 37° C. Cells were washed with HBSS/PBS four time and TMB substrate were added and incubated at room temperature in the dark until there was adequate development of blue color. The length of time of incubation was typically 5–15 minutes. 2N sulfuric acid was added to stop the color development and the data was collected by reading the absorbance on a BioRad ELISA plate reader at OD 450 nm. The results are expressed as IC50 values (the concentration (micromolar) of compound required to inhibit 50% of the maximal response of the control sample stimulated by TNF-α only). IC50's of tested compounds are tabulated in Biological Table 1.

For the next data set, the system named is Balb/C mice. Briefly: In vivo asthma model (ovalbumin-sensitized mice, BAL fluid eosinophilia). The note with it: 25 mg/kg, sc, qd; BALF eosinophilia vs vehicle control. As to the method: Balb/C mice (6–8 weeks old) were sensitized to ovalbumin (ova) (8 ug ova absorbed in 3.3 mg Alum inject) on days 0 and 5. On day 12, the mice were aerosol challenged with 0.5% ovalbumin dissolved in sterile saline for 1 hr in the AM, and then again in the PM (at least 4 hr apart). On day 14, the mice were anesthetized with ketamine/xylazine/acepromazine cocktail, exsanguinated, and then euthanized. Following blood collection, bronchoaveolar lavage (BAL) was performed on each animal. Total cell counts were conducted on the lavage fluid, which was subsequently diluted with cell media 1:1. Slides of the lavage fluid were made by spinning the samples with a cytospin centrifuge and then air drying. Cell differentials of the lavage fluid were determined by microscopic evaluation of hematoxylin and eosin-stained slides. Data are expressed as the % inhibition of eosinophilia in the BAL fluid compared to the vehicle control. […] The formulations used contained various mixtures of the following excipients (propylene glycol, polyethylene glycol, Tween 80, Glycofurol).

The test system of data set [2] is VCAM-1. Briefly: In Vitro VCAM-1 Assay - Method 2 (19 h predosing, 4 h TNFα stimulation, surface VCAM-1). Type of data set: cell-based. Particulars: Homo sapiens; HAEC or HPAEC, predosed 19 hours, TNFα 1.5 ng/ml 4 hours. As to the method:
Cultured primary human aortic (HAEC) or pulmonary artery (HPAEC) endothelial cells are obtained from BioWhittaker (formerly Clonetics), and are used below passage 9. Cells are seeded in 96-well plates such that they will reach ˜95% confluency by the following day (i.e.10,000 cells/well). Compounds are reconstituted in DMSO (100%) and sonicated to ensure maximum dissolution. Dilutions are then made in DMSO to 500× of final concentrations. These stocks are then diluted 500× into cell culture media (EGM-2 Mv, BioWhittaker) and placed overnight in tissue culture incubator (37° C., 5% CO2) to allow maximum dissolution).
Media is removed from the cells and replaced with the prewarmed dosing media. Cells are predosed in this manner for 19 hours at 37° C., 5% CO2. Remove media again from the cells and replace with prepared dosing media containing TNFα (1.5 ng/ml). Allow stimulation to continue for 4 hours at 37° C., 5% CO2. Media is removed and saved for evaluation of secreted factors as needed. Cells are used for quantitating surface VCAM-1, followed by Hoescht nuclear stain for cell number to determine toxicity. Assay for surface VCAM-1 continues as described in Method 1. IC50's of tested compounds are tabulated in Biological Table 1.

For the next data set, the system named is TNF-α. Briefly: Cytokine screening: LPS-induced secretion of TNF-α from hPBMCs. Type of data set: cell-based. The note with it: Homo sapiens, Biological Table 3; LPS-induced secretion from hPBMN cells; average of at least three determinations. The protocol:
Fresh cryopreserved hPBMCs (1 million cells/ml; Clonetics, Inc.) were pretreated with test compound for 1 hr in lymphocyte growth media-3 (Clonetics, Inc.), followed by stimulation with 1 μg/ml of LPS for another 2 hr in the presence of test compound. Conditioned media was collected and assayed for secreted TNF-α, IL-1β and […] using commercially available human ELISA kits (R&D Systems). Samples were measured in duplicate and data presented as mean ± standard deviation. Each experiment was repeated at least three times with similar results.

Another data set has as its system Female Lewis rats. The data set can be described thus: In vivo rheumatoid arthritis model (Freund's complete adjuvant, paw swelling). Particulars: paw swelling vs vehicle control. As to the method: Female Lewis rats (200–250 g) were sensitized with Freund's complete adjuvant (100 ug) by subcutaneous injection at the base of the tail. Paw swelling was monitored by measuring the volume of each foot with a plethysmometer on days 5, 8, 12–15. Animals were euthanized on day 15. […] Data is expressed as the % inhibition of paw swelling (AUC of the paw volume vs time curve d5–15) compared with vehicle control. The formulations used contained various mixtures of the following excipients (propylene glycol, polyethylene glycol, Tween 80, Glycofurol).

Each structure is given as a SMILES string. Bounds are passed on as bounds.

With `COC[C@H](O)[C@@H](O)COc1c(C(C)(C)C)cc(SC(C)(C)Sc2cc(C(C)(C)C)c(O)c(C(C)(C)C)c2)cc1C(C)(C)C` [Ex-15, 1-{2,6-Di-tert-butyl-4-[1-(3,5-di-tert-butyl-4-hydroxyphenylsulfanyl)-1-methylethylsulfanyl]phenoxy}-4-methoxybutane-2(S),3(S)-diol], the melting point fell in the range of 62 to 64 °C.
`CC(C)(Sc1cc(C(C)(C)C)c(O)c(C(C)(C)C)c1)Sc1cc(C(C)(C)C)c(OCC(=O)NCCC(=O)O)c(C(C)(C)C)c1` [Ex-5, 3-(2-{2,6-Di-tert-butyl-4-[1-(3,5-di-tert-butyl-4-hydroxyphenylsulfanyl)-1-methylethylsulfanyl]phenoxy}acetylamino)propionic acid]: the IC50 in the data set with VCAM-1 [1] was determined as 6 µM.
Same read-out and setting: the same measure for `COCCOCCOCCOc1c(C(C)(C)C)cc(SC(C)(C)Sc2cc(C(C)(C)C)c(O)c(C(C)(C)C)c2)cc1C(C)(C)C` [Ex-19, 2,6-Di-tert-butyl-4-[1-(3,5-di-tert-butyl-4-{2-[2-(2-methoxyethoxy)-ethoxy]ethoxy}-phenyl-sulfanyl)-1-methylethylsulfanyl]phenol]: greater than 50 µM.
Take `CCOC1O[C@H](CO)[C@@H](COc2c(C(C)(C)C)cc(SC(C)(C)Sc3cc(C(C)(C)C)c(O)c(C(C)(C)C)c3)cc2C(C)(C)C)O1` (stereo partly drawn) [compound 9, 2,6-Di-tert-butyl-4-{1-[3,5-di-tert-butyl-4-(2-ethoxy-5(R)-hydroxymethyl-[1,3]dioxolan-4(R)-ylmethoxy)-phenylsulfanyl]-1-methyl-ethylsulfanyl}-phenol]: the melting point fell in the range of 60 to 62 °C.
Consider `CN(CC(=O)O)C(=O)COc1c(C(C)(C)C)cc(SC(C)(C)Sc2cc(C(C)(C)C)c(O)c(C(C)(C)C)c2)cc1C(C)(C)C` [Ex-4, [(2-{2,6-Di-tert-butyl-4-[1-(3,5-di-tert-butyl-4-hydroxyphenylsulfanyl)-1-methylethylsulfanyl]phenoxy}acetyl)methylamino]acetic acid], for which the melting point lay in the range of 115 to 119 °C. Besides, the IC50 in the data set on VCAM-1 [1] came out at 7 µM.
For the compound `CC(C)(Sc1cc(C(C)(C)C)c(O)c(C(C)(C)C)c1)Sc1cc(C(C)(C)C)c(OCC[C@@H](O)CO)c(C(C)(C)C)c1` [Ex-11, 4-{2,6-Di-tert-butyl-4-[1-(3,5-di-tert-butyl-4-hydroxy-phenylsulfanyl)-1-methyl-ethylsulfanyl]-phenoxy}-butane-1,2(R)-diol], in the data set with Balb/C mice, the “Inhibition of BAL fluid eosinophilia (asthma model)” value (shortened to “Inhibition … (asthma model)”) was 95 percentage. Moreover, the values for the IC50 with VCAM-1 [2], in the data set with TNF-α and with VCAM-1 [1] were 7 µM, 4.4 µM and greater than 50 µM, respectively. Further, the “Rheumatoid arthritis model (25 mg/kg, sc, qd, inhibition of paw swelling in percentage)” value in the data set with Female Lewis rats is on record as 85 percentage.
In turn, `CC(C)(Sc1cc(C(C)(C)C)c(O)c(C(C)(C)C)c1)Sc1cc(C(C)(C)C)c(OCCO)c(C(C)(C)C)c1` [compound 17, 2,6-Di-tert-butyl-4-{1-[3,5-di-tert-butyl-4-(2-hydroxy-ethoxy)-phenylsulfanyl]-1-methyl-ethylsulfanyl}-phenol] yielded a melting point of 146 to 147 °C.
In turn, `CC(C)(Sc1cc(C(C)(C)C)c(O)c(C(C)(C)C)c1)Sc1cc(C(C)(C)C)c(OCCC[C@H](O)CO)c(C(C)(C)C)c1` [Ex-13, 5-{2,6-Di-tert-butyl-4-[1-(3,5-di-tert-butyl-4-hydroxy-phenylsulfanyl)-1-methyl-ethylsulfanyl]-phenoxy}-pentane-1,2(S)-diol] had a melting point of 68 to 71 °C. Moreover, in the data set with Balb/C mice, the “Inhibition … (asthma model)” value amounted to 60 percentage. The compound also returned an IC50 in the data set on VCAM-1 [2] of 11 µM.
In the case of `CC(C)(Sc1cc(C(C)(C)C)c(O)c(C(C)(C)C)c1)Sc1cc(C(C)(C)C)c(OCC(=O)NCC(=O)O)c(C(C)(C)C)c1` [Ex-3, (2-{2,6-Di-tert-butyl-4-[1-(3,5-di-tert-butyl-4-hydroxyphenylsulfanyl)-1-methylethylsulfanyl]phenoxy}acetylamino)acetic acid], the IC50 in the data set with VCAM-1 [1] turned out to be 6 µM.
As to `CC(C)(Sc1cc(C(C)(C)C)c(O)c(C(C)(C)C)c1)Sc1cc(C(C)(C)C)c(OCC(=O)NC(CO)CO)c(C(C)(C)C)c1` [Ex-6, 2-{2,6-Di-tert-butyl-4-[1-(3,5-di-tert-butyl-4-hydroxyphenylsulfanyl)-1-methyl-ethylsulfanyl]phenoxy}-N-(2-hydroxy-1-hydroxymethyl-ethyl)acetamide], the melting point is 163 to 164 °C. In the data set on VCAM-1 [1], the IC50 was 6 µM.
`CC(C)(Sc1cc(C(C)(C)C)c(O)c(C(C)(C)C)c1)Sc1cc(C(C)(C)C)c(OCCC(O)C(O)CCO)c(C(C)(C)C)c1` (stereo not drawn) [Ex-14, 6-{2,6-Di-tert-butyl-4-[1-(3,5-di-tert-butyl-4-hydroxy-phenylsulfanyl)-1-methyl-ethylsulfanyl]-phenoxy}-hexane-1,3,4-triol] came in with a melting point of 75 to 77 °C. For the same compound, the “Inhibition … (asthma model)” value in the data set with Balb/C mice is 84 percentage. Besides, it took 9.2 µM to reach half-maximal inhibition in the data set on VCAM-1 [2] (IC50). The IC50 in the data set on VCAM-1 [1] worked out at 21 µM.
Regarding `COC[C@@H](O)[C@H](O)COc1c(C(C)(C)C)cc(SC(C)(C)Sc2cc(C(C)(C)C)c(O)c(C(C)(C)C)c2)cc1C(C)(C)C` [Ex-16, 1-{2,6-Di-tert-butyl-4-[1-(3,5-di-tert-butyl-4-hydroxyphenylsulfanyl)-1-methylethylsulfanyl]phenoxy}-4-methoxybutane-2(R),3(R)-diol], the melting point was 68 to 70 °C. In addition, the “Inhibition … (asthma model)” value in the data set on Balb/C mice is 44 percentage. In addition, the “Rheumatoid arthritis model (25 mg/kg, sc, qd, inhibition of paw swelling in percentage)” value with Female Lewis rats is 63 percentage.
Consider `CC(C)(Sc1cc(C(C)(C)C)c(O)c(C(C)(C)C)c1)Sc1cc(C(C)(C)C)c(OCC(CO)CO)c(C(C)(C)C)c1` [Ex-18, 2-{2,6-Di-tert-butyl-4-[1-(3,5-di-tert-butyl-4-hydroxyphenylsulfanyl)-1-methylethyl-sulfanyl]phenoxymethyl}propane-1,3-diol], for which, in the data set with Balb/C mice, the “Inhibition … (asthma model)” value is recorded as 60 percentage. Moreover, the figures for the IC50 in the data set on VCAM-1 [2], in the data set with TNF-α and in the data set with VCAM-1 [1] were 6 µM, 4.5 µM and 13 µM, respectively. Besides, in the data set with Female Lewis rats, the “Rheumatoid arthritis model (25 mg/kg, sc, qd, inhibition of paw swelling in percentage)” value was determined as 83 percentage.
